Assays:
GrhO6 = target: T1, GrhO6 (Streptomyces sp. JP95, UniProt Q8KSX5); assay: identification of flavin bound to purified enzyme by HPLC; type: binding; settings: co-purified cofactor, tight, non-covalent
T1 construct: full-length gene in pETDuet-1 (EcoRI/PstI), polyhistidine tag kept; E. coli BL21 (DE3)
T1 sequence (Q8KSX5 1-520): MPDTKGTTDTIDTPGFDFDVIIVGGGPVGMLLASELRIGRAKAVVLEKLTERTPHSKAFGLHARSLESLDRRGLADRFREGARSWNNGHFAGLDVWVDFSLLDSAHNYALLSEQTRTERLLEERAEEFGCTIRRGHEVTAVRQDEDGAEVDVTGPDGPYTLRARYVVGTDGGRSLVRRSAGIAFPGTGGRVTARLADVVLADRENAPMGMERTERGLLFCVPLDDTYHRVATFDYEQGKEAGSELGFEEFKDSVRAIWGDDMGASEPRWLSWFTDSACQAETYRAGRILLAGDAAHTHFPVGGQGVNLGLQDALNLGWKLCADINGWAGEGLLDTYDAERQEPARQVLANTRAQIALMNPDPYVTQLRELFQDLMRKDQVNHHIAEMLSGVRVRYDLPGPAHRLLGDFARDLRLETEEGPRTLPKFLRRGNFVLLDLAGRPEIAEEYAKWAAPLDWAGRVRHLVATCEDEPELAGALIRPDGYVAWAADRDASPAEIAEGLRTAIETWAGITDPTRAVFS

GrhO5 = target: T2, GrhO5 (Streptomyces sp. JP95, UniProt Q8KSX7); assay: as above; type: binding; settings: co-purified cofactor
T2 construct: full-length gene in pMAL-c5x-His (NdeI/PstI), N-terminal MBP tag kept; E. coli BL21 (DE3); amplified from cosmid pMP31
T2 sequence (Q8KSX7 1-537): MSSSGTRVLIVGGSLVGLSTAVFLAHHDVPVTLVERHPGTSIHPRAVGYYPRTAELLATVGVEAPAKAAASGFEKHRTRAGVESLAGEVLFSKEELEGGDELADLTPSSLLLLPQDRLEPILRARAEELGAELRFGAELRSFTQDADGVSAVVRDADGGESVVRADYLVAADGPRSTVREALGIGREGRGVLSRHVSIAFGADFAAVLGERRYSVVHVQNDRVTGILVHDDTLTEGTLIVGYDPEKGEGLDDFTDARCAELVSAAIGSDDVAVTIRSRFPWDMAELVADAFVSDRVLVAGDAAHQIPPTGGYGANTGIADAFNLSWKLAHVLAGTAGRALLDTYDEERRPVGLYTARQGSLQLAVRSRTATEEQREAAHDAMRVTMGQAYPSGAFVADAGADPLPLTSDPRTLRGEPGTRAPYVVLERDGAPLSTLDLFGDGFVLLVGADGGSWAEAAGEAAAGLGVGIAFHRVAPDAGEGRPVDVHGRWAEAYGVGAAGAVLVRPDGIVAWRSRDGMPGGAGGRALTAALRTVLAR

Cc1cc2nc3c(=O)[nH]c(=O)nc-3n(C[C@H](O)[C@H](O)[C@H](O)COP(=O)(O)OP(=O)(O)OC[C@H]3O[C@@H](n4cnc5c(N)ncnc54)[C@H](O)[C@@H]3O)c2cc1C [FAD]
identification of flavin bound to purified enzyme by HPLC (GrhO6): contained a tightly, but non-covalently bound FAD cofactor similar to GrhO5
identification of flavin bound to purified enzyme by HPLC (GrhO5): bound flavin cofactor that was further determined as flavin adenine dinucleotide
